Data set [1] in a line: Oxipres antioxidant efficacy value (EV) in fish meal. To be noted: Oxipres 70° C., 5 bar O2, equimolar to BHT; EV relative to BHT (EV=1). As to the method: (§1) Oxidative stability was assessed using an Oxipres (Mikrolab Aarhus A/S, Hojbjerg, Denmark). The ML OXIPRES® is designed to monitor the oxidation of heterogeneous products. Consumption of oxygen results in a pressure drop which is measured by means of pressure transducers. The samples are heated to accelerate the process and shorten the analysis time (Mikrolab Aarhus 2012).
(§2) Sample weights were 50 g. They were loaded into the Oxipres vessels and placed inside the stainless-steel pressure vessel and sealed. The pressure vessels were purged with pure oxygen and filled to an initial oxygen pressure of 5 bar and maintained at 70° C. during measurement (D. Ying, L. Edin, L. Cheng, L. Sanguansri, M. A. Augustin, LWT—Food Science and Technology 2015, 62, 1105-1111: “Enhanced oxidative stability of extruded product containing polyunsaturated oils.”).
(§3) The oxygen pressure was recorded as function of time. After sample load and temperature rise the pressure in the device is increasing within 10 hours up to the starting pressure. Thereafter it is decreasing. Consequently, the starting pressure is considered as being the pressure after 10 hours. The analysis ends after 130 hours at 70° C. The oxygen consumption ‘O2’ of the tested sample is calculated as follows: […]
(§4) A factor of protection called ‘EV’ (Efficacy Value) was developed to quantify with a relative number (relative to BHT) the antioxidant effect of the tested candidates. EV was calculated as follows:
(§5) EV, being relative to BHT (3,5-di-tert-butyl-4-hydroxy-toluene) (EV=1), makes it possible to compare the antioxidant compounds in a defined feed application.
(§6) Each of the compounds of formulae (1) to (6) were mixed into each matrix 1, 2 or 3 (pet food, poultry meal, fish meal) in an equimolar ratio compared to BHT. Batches of 200 g feed were produced in order to handle a minimum of 30 mg of antioxidant. First, a 1% pre-dilution of the antioxidant with the feed material was made. Then this pre-dilution was added to the final batch, mixed, sieved (1.25 mm sieve) and mixed using a turbula mixer. Thereafter 55 g of the final batch were packed into polyethylene bags, and stored at 4° C. until start of the Oxipres assay. Spare sample were stored at 4° C. Compound of formula (3) was measured in all three matrices. Compound of formula (1) was measured in matrix 1 and 2. Compound of formula (2) was measured in matrix 2. Compounds of formulae (4), (5) and (6) were measured in matrix 3. An efficacy value 0.7 has been considered as acceptable, an efficacy value ≥ the efficacy value of alpha-tocopherol as good, and an efficacy value ≥ the efficacy value of BHT as very good.

A short description of data set [2]: Oxipres antioxidant efficacy value (EV) in pet food. Conditions: Oxipres 70° C., 5 bar O2, equimolar to BHT; EV relative to BHT (EV=1). As to the method: as §1, §2, §3, §4, §5, §6
A short description of data set [3]: Oxipres antioxidant efficacy value (EV) in poultry meal. To be noted: Oxipres 70° C., 5 bar O2, equimolar to BHT; EV relative to BHT (EV=1). As to the method: as §1, §2, §3, §4, §5, §6
Data set [4] can be described thus: Storage stability in fish oil (PV, p-AV), Example 13. To be noted: for Peroxide values (PV, meq/kg) / p-Anisidine value (p-AV): storage at 25° C. As to the method: A storage stability study was performed to compare the variation of primary oxidation products, the hydroperoxides, generated during oxidation, measured in terms of peroxide value (PV) and the secondary oxidation products which were measured and determined as anisidine reactive substances or p-anisidine value (p-AV) of oil samples containing these compounds.
The two different concentrations of compounds of formulae (3) and (7) were used for the storage stability study. Each compound and MNT were added, each individually, to 40 g of fish oil samples in 60 ml amber bottles at 0.5 mg/g and 2 mg/g levels, thoroughly mixed and stored at ambient temperature for 19 days. All sample bottles were stored open to air, away from light. […] Peroxide values (PV) and p-anisidine values (p-AV) were determined at different times for 19 days.

The nature of data set [5]: Oil Stability Index (OSI) in fish oil, Example 13. To be noted: for OSI: Table 28, FG30TG fish oil, 80° C.; for Protection Factor (%): Table 34, fish oil (80° C.). As to the method: The compounds of formulae (3) and (7) were used in both fish and algal oils to see their antioxidant effect in these oils. Antioxidant effect was determined using mainly the Oil Stability Index (OSI). Two concentration levels were used: 0.5 mg/g (low level) and 2 mg/g (high level), respectively, have been added to 5 g of oil and used in the Oxidative Stability Instrument operated at 80° C. with the continuous air flow rate at ˜40 psi. All samples were run in duplicate. The Protection Factors (PF) for each compound, as percentage, in oil were calculated as, [formula]

Data set [6] is described as follows: Solubility in fish oil. The format is physicochemical. To be noted: fish oil, 0.5 and 2 mg/g; mixed around 40° C. to dissolve completely. As to the method: The compounds of formulae (4), (6), (8) and (9) were evaluated primarily for their oxidative stability by the Oil Stability Index (OSI) measurements. Two different levels of these antioxidants (0.5 and 2 mg/g) were used in 5 g of natural fish oil (Product code: FG30TG) and used in the Oxidative Stability Instrument at 80° C. with the air flow rate of 40 psi. The solubility of different amounts and types of antioxidants used in OSI was checked before and after the application. […]

A short description of data set [7]: Oil Stability Index (OSI) in crude algal oil, Example 13. Conditions: for OSI: Table 33, crude algal oil (contained about 1.6 mg/g MNT prior to use), 80° C.; for Protection Factor (%): Table 35, crude algal oil (80° C.). As to the method: The compounds of formulae (3) and (7) were used in both fish and algal oils to see their antioxidant effect in these oils. Antioxidant effect was determined using mainly the Oil Stability Index (OSI).
Two concentration levels were used: 0.5 mg/g (low level) and 2 mg/g (high level), respectively, have been added to 5 g of oil and used in the Oxidative Stability Instrument operated at 80° C. with the continuous air flow rate at ˜40 psi. All samples were run in duplicate. The Protection Factors (PF) for each compound, as percentage, in oil were calculated as,
The Oil Stability Indices (OSI) of crude algal oil with levels of 0.5 mg/g and 2 mg/g of compounds of formulae (3) or (7) are shown in Table 33.

Data set [8] in a line: Oil Stability Index (OSI) in fish oil, Example 12. To be noted: for OSI: Table 15, 80° C.; for OSI / Protection Factor (%): FG30TG fish oil; for Protection Factor (%): Table 18. As to the method:
The compounds of formulae (4), (6), (8) and (9) were evaluated primarily for their oxidative stability by the Oil Stability Index (OSI) measurements. Two different levels of these antioxidants (0.5 and 2 mg/g) were used in 5 g of natural fish oil (Product code: FG30TG) and used in the Oxidative Stability Instrument at 80° C. with the air flow rate of 40 psi. The solubility of different amounts and types of antioxidants used in OSI was checked before and after the application.
The compounds of formulae (6) and (9) (see Table 14 below), compound of formula (4) (see Table 15 below) and compound of formula (8) (see Table 16 below) were used at different times in the Oxidative Stability instruments under similar operational conditions used for fish oil evaluations. MNT and the oil without any antioxidants (“Blank”) were always used to compare. Also, the synergistic effect of only oil soluble compounds with ascorbyl palmitate was determined using the OSI values. The polymers generated at the end of the experiment were determined by LC (LC=liquid chromatography).
The Protection Factors (PF) for each compound in oil were calculated in percentage as: […]

Each structure is given as a SMILES string. “Also recorded” adds a separate entry of the source.

On to `Cc1cc(C(C)(C)C)c(O)c(C(C)(C)C)c1` [BHT, 3,5-di-tert-butyl-4-hydroxy-toluene, reference compound], for which the “EV in Fish meal” value in data set [1] came to 1. Besides, the “EV in pet food” value in data set [2] amounted to 1. For the same molecule, the “EV in poultry meal” value in data set [3] is given as 1.
Consider `Oc1ccc2c(c1)CCCO2` [Compound of formula (1), chroman-6-ol], for which the “EV in pet food” value in data set [2] was 0.98. Also, in data set [3], the “EV in poultry meal” value is listed as 1.12.
On to `CC1CCc2cc(O)ccc2O1` (stereo not drawn) [Compound of formula (2), 2-methyl-chroman-6-ol], for which the “EV in poultry meal” value in data set [3] was 1.09.
With `CC1(C)CCc2cc(O)ccc2O1` [Compound of formula (3), 2,2-dimethyl-chroman-6-ol], the “level of secondary oxidation products (p-AV) during storage” value in data set [4] (0.5 mg/g concentration) is “lowest level of secondary oxidation products (p-AV)”. For the same molecule, the “Peroxide values (PV, meq/kg)” value in data set [4] (0.5 mg/g level, 1 day) amounted to 1 meq/kg; in data set [4] (0.5 mg/g level, 5 days) it was 2 meq/kg; in data set [4] (0.5 mg/g level, 8 days), 6.4 meq/kg; in data set [4] (0.5 mg/g level, 14 days), 12.8 meq/kg; in data set [4] (0.5 mg/g level, 19 days) it was 20.9 meq/kg; in data set [4] (0.5 mg/g level, Initial), 1 meq/kg. Also, the “Peroxide values (PV, meq/kg)” value in data set [4] (2 mg/g level, 1 day) stood at 1 meq/kg; in data set [4] (2 mg/g level, 5 days) it was 1.9 meq/kg; in data set [4] (2 mg/g level, 8 days), 6.4 meq/kg; in data set [4] (2 mg/g level, 14 days), 14.1 meq/kg; in data set [4] (2 mg/g level, 19 days), 26.8 meq/kg; in data set [4] (2 mg/g level, Initial), 1 meq/kg. The “p-Anisidine value (p-AV)” value in data set [4] (0.5 mg/g level, 1 day) is recorded as 9.5; in data set [4] (0.5 mg/g level, 5 days), 9.5; in data set [4] (0.5 mg/g level, 8 days) it was 11.2; in data set [4] (0.5 mg/g level, 14 days), 11.4; in data set [4] (0.5 mg/g level, 19 days), 12.8; in data set [4] (0.5 mg/g level, Initial), 9.4. In addition, the “p-Anisidine value (p-AV)” value amounted to 9.4 in data set [4] (2 mg/g level, 1 day); 9.3 in data set [4] (2 mg/g level, 5 days); 10.8 in data set [4] (2 mg/g level, 8 days); 11.2 in data set [4] (2 mg/g level, 14 days); 11.8 in data set [4] (2 mg/g level, 19 days); 9.4 in data set [4] (2 mg/g level, Initial). For the same molecule, the “OSI” value in data set [5] (0.5 mg/g) is 7.13 h; in data set [5] (2 mg/g) it was 7.48 h; in data set [7] (0.5 mg/g), 17.05 h; in data set [7] (2 mg/g), 18.63 h. Further, the “Protection Factor (%)” value in data set [5] (0.5 mg/g) was found to be 42.5%; in data set [5] (2 mg/g) it was 49.5%; in data set [7] (0.5 mg/g), 13.7%; in data set [7] (2 mg/g), 24.2%. The “antioxidant activity (OSI) in fish oil compared with MNT” value in data set [5] (fish oil, Example 13, 0.5 and 2 mg/g) was “slightly higher Oil Stability Indices than those of MNT; also recorded: comparable in activity with MNT”. Further, in data set [6], the Solubility in oil result was “not readily soluble in oil”. The “EV in Fish meal” value in data set [1] stood at 0.96. For the same molecule, the “EV in pet food” value in data set [2] was 0.95. Further, the “EV in poultry meal” value in data set [3] is 1.17.
As to `COc1cc2c(cc1O)CCC(C)(C)O2` [Compound of formula (4), 7-Methoxy-2,2-Dimethyl-6-Chromanol], in data set [8] (0.5 mg/g), the “OSI” value worked out at 4.98 h and the “Protection Factor (%)” value was determined as 4.74%. In addition, in data set [8] (2 mg/g), the “OSI” value was determined as 5.95 h and the “Protection Factor (%)” value turned out to be 25.26%. Besides, in data set [8] (fish oil, Example 12, same level of MNT), the “antioxidant effect (OSI) in fish oil compared with MNT” value is “lower OSI values than those of MNT”. The “EV in Fish meal” value in data set [1] came to 1.05.
Regarding `Cc1c(C)c2c(c(C)c1O)CCC(C)(C)O2` [Compound of formula (5), 2,2,5,7,8-pentamethyl-chroman-6-ol], the “EV in Fish meal” value in data set [1] came to 1.08.
As for `Cc1c(C)c2c(c(C)c1O)CC[C@@](C)(CCC[C@H](C)CCC[C@H](C)CCCC(C)C)O2` [alpha-tocopherol, reference compound], the “EV in Fish meal” value in data set [1] came out at 0.88. Moreover, the “EV in pet food” value in data set [2] is recorded as 0.77. The “EV in poultry meal” value in data set [3] is 0.74.
